In patent US20220233492A1, “METHOD OF PREVENTING OR TREATING POSTOPERATIVE PAIN” (priority 2019, published 2022):
Entries after “also recorded” stand apart in the source; their conditions may differ.

Legend:
[1] = system: postoperative pain, subjects for an open elective abdominoplasty; test: Example 2: IV infusion started before anesthesia induction vs placebo, open elective abdominoplasty; assay type: in vivo, human
[2] = system: postoperative pain, subjects underwent laparoscopic or robotic-assisted gastrectomy; test: Example 4: intraoperative start IV infusion vs placebo, laparoscopic or robotic-assisted gastrectomy; assay type: in vivo, human; details: for reduction of total amount of opioid consumed vs placebo: p<0.05
[3] = double-blinded, randomized preclinical studies with PK/PD correlation analyses; assay type: in vivo
[4] = system: postoperative pain, subjects for an elective bunionectomy; test: Example 3: IV infusion after nerve block removal vs placebo, elective bunionectomy; assay type: in vivo, human
Procedure: The primary-outcome measure, pain intensity, was evaluated using NRS (0-10) at the scheduled time points through 48 hours post-emergence. […] Subjects were given 2 stopwatches to start at the time of the start of the study drug infusion (T=0) and were instructed to stop the first stopwatch when “perceptible pain relief”, and the second stopwatch when “meaningful pain relief” is felt by the Time 12 hr.

[5] = system: postoperative pain, subjects underwent laparoscopic colorectal surgery; test: Example 1: postoperative IV infusion vs placebo after laparoscopic colorectal surgery; assay type: in vivo, human
Procedure: Subjects who reported a pain intensity score of at least 4 on the NRS (0-10) after regaining consciousness in the post-anesthesia care unit (PACU) were enrolled in the study. The VVZ-149 group received an 8-hours IV infusion at a loading dose of 1.8 mg/kg for 0.5 h followed by a maintenance dose of 1.3 mg/kg/h for 7.5 h, and the placebo group received a placebo with the same dosing regimen. […] The primary-outcome measure, pain intensity, was evaluated using NRS (0-10) at the scheduled time points through 24 hours post-emergence. […] In rescued patients, anxiety was also highly correlated with both depression (r=0.285, p=0.041) and PCS score (r=0.334, p=0.016).

[6] = system: healthy human subjects or subjects undergoing major surgeries; test: safety in healthy human subjects or subjects undergoing major surgeries; assay type: in vivo

Q: With `CCCCOc1c(OC)cc(C(=O)NCC2(N(C)C)CCOCC2)cc1OC` [VVZ-149, 4-butoxy-N-((4-(dimethylamino)tetrahydro-2H-pyran-4-yl)methyl)-3,5-dimethoxybenzamide] as the compound, how does the “total amount of rescue opioid consumed vs placebo” value ([1]; 0-6, 0-12, 0-24 hours, FIG. 9) read?
A: significant lower

Q: What about the “reduction of postoperative pain” value ([1]; 10-hours IV infusion 160 mg 0.5 h + 840 mg 9.5 h, starting approx. 30 minutes before induction of anesthesia) of the same compound?
A: opioid comparable reduction of postoperative pain

Q: What about the “number of requests for rescue opioid vs placebo” value ([1]; IV morphine rescue, 0-24 hours, FIG. 8) of the same compound?
A: significant lower

Q: What about the “proportion of opioid-free subjects vs placebo” value ([1]; during the first 12 hours post-emergence, FIG. 10) of the same compound?
A: higher proportion of subjects that are opioid-free

Q: And the “mean NRS rest vs placebo” value ([2]; 10 h IV infusion 1.8 mg/kg 0.5 h + 1.3 mg/kg/hr 9.5 h, significance at T=4 (p<0.05), FIG. 12)?
A: lower at any given timepoint through 24 hrs post-emergence except at T=24

Q: And the “opioid sparing (opioid consumed vs placebo)” value ([2]; for 10 hours post-emergence, p<0.01, FIG. 14)?
A: 31.8%

Q: What about the “number of PCA demand vs placebo” value ([2]; in vivo) of the same compound?
A: significantly lessened at T=2 and T=10

Q: And the “reduction of total amount of opioid consumed vs placebo” value ([2]; rescued patient group, 0-10 hr post-emergence)?
A: 31.4%

Q: What about the “reduction of total amount of opioid consumed vs placebo” value ([2]; rescued patient group, 10-24 hr post-emergence) of the same compound?
A: 35%

Q: And the “pain intensity (PIs) vs placebo” value ([2]; rescued patient group, significance at 4 hr (p<0.01) and 10 hr post-emergence (p<0.05), FIG. 15b)?
A: much lower

Q: What about the pain relief [3] of the same compound?
A: dose-dependent pain relief

Q: What about the “sedative or adverse effects” value [3] of the same compound?
A: without significant sedative or adverse effects

Q: And the anti-allodynic effect ([3]; versus morphine or gabapentin)?
A: comparable to morphine or gabapentin

Q: What about the “pain intensity (NRS 0-10) vs placebo” value ([4]; 10-hours IV infusion 160 mg 0.5 h + 840 mg 9.5 h after nerve block removal, FIG. 16a) of the same compound?
A: lower pain intensity

Q: And the “opioid consumption vs placebo” value ([4]; IV morphine rescue, all patients)?
A: less opioid consumption

Q: What about the “morphine requested and consumed vs placebo subgroup” value ([4]; subgroup predose PI≥7, FIG. 17a, 17b) of the same compound?
A: significant less morphine was requested and consumed

Q: And the “pain intensity vs placebo subgroup” value ([4]; subgroup with severe postoperative pain, predose PI≥7, FIG. 16b)?
A: significant lower pain intensity

Q: What about the “patients reporting perceptible pain relief” value ([4]; within 30 minutes after the start of infusion, FIG. 18) of the same compound?
A: More than 50%

Q: What about the “pain intensity (NRS 0-10) vs placebo” value ([5]; 8-hours IV infusion 1.8 mg/kg 0.5 h + 1.3 mg/kg/h […], through 24 hours post-emergence, FIG. 1) of the same compound?
A: lower pain intensity

Q: And the “opioid consumption (hydromorphone via PCA and rescue) vs placebo” value ([5]; all patients, FIG. 2)?
A: significant less opioid consumption

Q: And the “number of PCA demands vs placebo” value ([5]; hydromorphone PCA, FIG. 3 and FIG. 4)?
A: significantly reduced the patients' need for postoperative analgesia; also recorded: significantly lower

Q: And the “pain intensity vs placebo subgroup” value ([5]; subgroup of rescued patients (rescue hydromorphone in first 2 hours post-emergence), FIG. 7)?
A: reduced pain intensity

Q: And the “decrease in hydromorphone use compared to placebo” value ([5]; subgroup of rescued patients, FIG. 7)?
A: 40%

Q: What about the “pain intensity vs placebo subgroup” value ([5]; subgroup with severe postoperative pain (predose PI 7), FIG. 5a) of the same compound?
A: significant lower pain intensity

Q: And the “hydromorphone (via PCA and/or rescue) requested and consumed vs placebo subgroup” value ([5]; subgroup with severe postoperative pain (predose PI 7), FIG. 5b)?
A: less hydromorphone (via PCA and/or rescue) was requested and consumed

Q: And the “clinically significant adverse events (AEs)” value [6]?
A: No clinically significant adverse events
